Assay results as given in patent US20130149721A1, “Methods for Inhibiting Amyloid Precursor Protein and Beta-Amyloid Production and Accumulation” (WISCONSIN ALUMNI RESEARCH FOUNDATION, priority 2008, published 2013).

Experiments:
[1] = tested on: FMRP-associated APP mRNA in WT SN; test: FMRP immunoprecipitation and RTqPCR of associated APP mRNA in synaptoneurosomes; type: cell-based, mouse
Procedure: SNs were prepared from WT and Fmr-1 KO mouse cortical tissue (Dunkley et al., 1988, Brain Res 441: 59-71; Bagni et al., 2000, J Neuorsci 20: RC76). Briefly, mouse pups aged 14-17 d were killed by carbon dioxide asphyxiation followed by removal of the brain cortices. The cortices were washed in ice-cold gradient medium (GM buffer: 0.25 M sucrose, 5 mM Tris (pH 7.5), and 0.1 mM EDTA), transferred to a glass dounce homogenizer containing ice-cold GM buffer, and gently homogenized with five strokes of the loose pestle followed by five strokes of the tight pestle. The homogenate was spun at 1000 g for 10 min at 4° C. in round-bottom tubes to pellet cellular debris and nuclei. […] The protein concentration of the SNs was determined by Bradford assay and ranged from 200-500 ng/μl. […]
SN lysates were precleared with protein A magnetic beads and immunoprecipitated with 10 μl RNasin, 10 μg 7G1-1 antiFMRP antibody (or in the absence of antibody as a control), and 100 μl packed fresh protein A magnetic beads for 3 h at 4° C. […] The final pellet was suspended in DEPC-treated water, solubilized 10 min at 60° C., and reverse transcribed with Qiagen Omniscript and random nonamer primer (60 min at 37° C., 5 min at 93° C.). cDNA produced in this reaction was diluted 5-fold and analyzed for APP by qPCR as described immediately above. […]

[2] = tested on: audiogenic seizures in mice; test: Audiogenic seizure (AGS) testing; type: in vivo, mouse; settings: MPEP 30 mg/kg I.P. 30 min prior to AGS testing
Procedure: Audiogenic Seizure Testing, Data Analyses and mGluR5 Blockade: All mouse strains were tested at postnatal day 21, the peak of AGS sensitivity. The experimental apparatus consisted of a clear, Plexiglas box (13″L×8″W×7″H) with the sound source located inside the box (LOUD KEY™ jogger's alarm). Mice were weighed and then placed individually into the center of the chamber and exposed to a siren that generated noise at 118 dB for 5 min. Loud, acoustic stimulation causes wild running (WR) behavior within 20-30 sec followed by erratic leaping, clonic convulsions and tonic hind limb extension by 40-50 sec followed by respiratory arrest and death (Chen, et al., 2001, Neuroscience 103, 1043-1050). The animals were scored for the latency time of wild running (WR), AGS and respiratory arrest (death). […] MPEP was a kind gift from FRAXA Research Foundation (Newburyport, Mass.) and was dissolved at 1 mg/mL in DPBS before I.P. injection at 30 mg/kg body weight 30 min prior to AGS testing.
Tg2576 mice over-expressed hAPPSwe and hAβ. FRAXAD were a cross between fmr-1^−/− (Fragile X mouse model) and Tg2576 (AD mouse model) and generated 23% more brain hAβ1-40 than Tg2576 (Westmark et al., 2008, Int J Clin Exp Pathol 1: 157-168). […] It was determined whether hAPPSwe/hAβ over-expression in an fmr-1 null background (FRAXAD mice) increased AGS. C57BL/6 fmr-1^−/− mice were sensitive to AGS from 15-47 days with a peak at 21 days (Yan et al., 2005, Neuropharmacology 49: 1053-1066). AGS in WT, fmr-1^−/−, Tg2576 and FRAXAD mice was examined at 21 days of age. Mice were transferred to a Plexiglas box (13″L×8″W×7″H) shortly after weaning and exposed to high pitch siren (118 dB) from a personal body alarm (LOUD KEY™).
A common denominator between Fragile X Syndrome (FXS), Downs Syndrome (DS), and Alzheimer's Disease (AD) is the over-expression of amyloid precursor protein (APP) and/or beta-amyloid (Aβ). […] Additionally, methods that decreased APP/Aβ levels were expected to reduce AGS. Accordingly, AGS rates were examined in AD, FXS and DS mouse models. AGS rates for FRAXAD, Tg2576, and fmr-1^−/−, Ts65Dn were described above in Example 6. Here, the ability of 2-methyl-6-(phenylethynyl)pyridine hydrochloride (MPEP) to attenuate AGS was assessed. Tg2576 and FRAXAD mice were treated with MPEP for 30 min prior to AGS stimulation to assess the effect of mGluR5 blockade on seizure propensity in AD mouse models.

[3] = tested on: audiogenic seizures in Fmr-1 KO mice; settings: intraperitoneal injections; cited from earlier work

N[C@@H](C(=O)O)c1cc(O)cc(O)c1 (racemic) [DHPG, (R,S)-3,5-dihydroxyphenylglycine]
time to loss of APP mRNA-FMRP complex ([1]; WT SN contacted with DHPG): ≤ 5 min | difference in FMRP-associated APP mRNA ([1]; WT SN, untreated vs 100 μM DHPG, 60 min): > 60 fold

Cc1cccc(C#Cc2ccccc2)n1 [MPEP, 2-methyl-6-(phenylethynyl)pyridine]
% Death ([2]; FRAXAD mice): 7% | % WR ([2]; FRAXAD mice): 60% | % Death ([2]; Fmr-1 KO mice): 0% | % WR ([2]; Fmr-1 KO mice): 14% | % Death ([2]; Tg2576 mice): 0% | % WR ([2]; Tg2576 mice): 0% | % AGS ([2]; WT mice): 0% | % Death ([2]; WT mice): 0% | % WR ([2]; WT mice): 0% | effect on audiogenic seizures [3]: reduce
